The values below come from ChEMBL document CHEMBL1201862, “PubChem BioAssay data set” (2004).

Among the test systems are SR; SF-268; SW-620; SN12C; A549; EKVX; NCI-H23; HCT-116; HCT-15; M14; KM12; NCI-H522; OVCAR-5; SF-295; 786-0; HOP-92.
Holding throughout (assay): inhibition of tumour cell growth, NCI panel, 48 h

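Dose response: 5 concentrations. Exposure: 48 h. Format: 96-well plates. Endpoint: linear interpolation; highest concentration if not reached. Here, GI50 denotes the concentration required for 50% inhibition of growth.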 Active and inactive are the calls of the source. No stated cut-off is given here; in the data, active = GI50 up to about 1.1 µM and inactive = higher.

Regarding `O=C1CCN(CCC(F)(F)C(F)(F)C(F)(F)C(F)(F)F)C(=S)N1`, the GI50 in the assay with SR, with SF-268, with SW-620, in the assay on SN12C, with A549 and in the assay with EKVX was > 100 µM (inactive) each time. The GI50 is > 100 µM (inactive) in the assay on NCI-H23; > 100 µM (inactive) in the assay with HCT-116; over 100 µM with HCT-15; > 100 µM (inactive) with M14; > 100 µM (inactive) in the assay on KM12; > 100 µM (inactive) with NCI-H522. In addition, the GI50 with OVCAR-5, in the assay on SF-295 and in the assay with 786-0 was > 100 µM (inactive) throughout.
As to `Cc1ccc(C2=C(c3ccccc3)C(=O)C(c3ccccc3)=C2c2ccc(C)cc2)cc1`, the GI50 is 58.5 µM (inactive) in the assay on SR; 32.1 µM (inactive) in the assay with SF-268; 37.9 µM (inactive) in the assay with SW-620; 66.5 µM (inactive) in the assay on SN12C; 43.7 µM (inactive) in the assay on A549; 38 µM (inactive) in the assay on EKVX. Further, the GI50 is 31.1 µM (inactive) in the assay with NCI-H23; 31.4 µM (inactive) in the assay with HCT-116; 32.4 µM in the assay with HCT-15; > 100 µM (inactive) in the assay with M14; 36.5 µM (inactive) in the assay on KM12; 72.9 µM (inactive) in the assay with NCI-H522. Besides, the GI50 in the assay with OVCAR-5 is > 100 µM (inactive); in the assay on SF-295, 18.4 µM (inactive); in the assay with 786-0, 34.8 µM (inactive).
With `COC(=O)/C(=N\NC(N)=S)C(C(=O)OC)C(=O)C(=O)Nc1ccc(C)cc1` (stereo unspecified), the GI50 with SR, with SF-268, in the assay on SW-620, in the assay on SN12C, in the assay on A549 and in the assay on EKVX was > 100 µM (inactive) each time. Besides, the GI50 with NCI-H23 was > 100 µM (inactive); in the assay on HCT-116, > 100 µM (inactive); in the assay with HCT-15 it was over 100 µM; in the assay on M14 it was > 100 µM (inactive); in the assay on KM12, > 100 µM (inactive); in the assay on NCI-H522 it was > 100 µM (inactive). Besides, the GI50 in the assay on OVCAR-5, with SF-295 and in the assay with 786-0 was > 100 µM (inactive) throughout.
Take `CC(Oc1ccc(OCC2CCCCC2)cc1)C(=O)NCCO` (stereo unspecified): the GI50 in the assay on SF-268 is > 100 µM (inactive); in the assay on SN12C, > 100 µM (inactive); in the assay on A549, > 100 µM (inactive); with NCI-H23, 15.7 µM (inactive); with HCT-116, > 100 µM (inactive); with HCT-15, over 100 µM. Besides, the GI50 in the assay with M14 is > 100 µM (inactive); with KM12 it was > 100 µM (inactive); in the assay with NCI-H522 it was 87.1 µM (inactive); in the assay on SF-295, 23.4 µM (inactive); with 786-0, > 100 µM (inactive).
On to `Cn1c2c(c3ccccc31)CCN(CCCN1CCN(c3cccc(Cl)c3)CC1)C2=O`, for which the GI50 with SF-268 is 15.6 µM (inactive); in the assay with SW-620, 28 µM (inactive); in the assay with SN12C it was 21.4 µM (inactive); with A549 it was 49.3 µM (inactive); with EKVX it was 41.7 µM (inactive); in the assay with HOP-92, 3.91 µM (inactive). In addition, the GI50 is 19.5 µM (inactive) in the assay with NCI-H23; 12.3 µM (inactive) with HCT-116; 25.1 µM in the assay on HCT-15; 17.1 µM (inactive) in the assay on M14; 18.8 µM (inactive) in the assay on NCI-H522; 17.1 µM (inactive) in the assay with 786-0.
With `CC(C)=Cc1cc(C(=O)NCCNC(=O)c2cc(C=C(C)C)nc(NC#N)n2)nc(NC#N)n1`, the GI50 in the assay with SF-268, in the assay on SW-620, in the assay with SN12C, in the assay on A549, in the assay with EKVX and in the assay with HOP-92 was > 100 µM (inactive) each time. Further, the GI50 in the assay with NCI-H23 is > 100 µM (inactive); with HCT-116, > 100 µM (inactive); in the assay on HCT-15 it was over 100 µM; with M14, > 100 µM (inactive); with KM12, > 100 µM (inactive); in the assay with NCI-H522, > 100 µM (inactive). Moreover, the GI50 in the assay with OVCAR-5, with SF-295 and with 786-0 was > 100 µM (inactive) in each case.
Consider `O=C(CCc1n[nH]c(=S)o1)Nc1ccccc1C(F)(F)F`, for which the GI50 was > 100 µM (inactive) in the assay with SF-268; 18.2 µM (inactive) with SW-620; > 100 µM (inactive) in the assay with SN12C; > 100 µM (inactive) in the assay with EKVX; > 100 µM (inactive) in the assay on HOP-92; > 100 µM (inactive) with NCI-H23. Also, the GI50 with HCT-116 is > 10 µM (inactive); with HCT-15 it was 20.2 µM; in the assay on M14, > 100 µM (inactive); in the assay on KM12, > 100 µM (inactive); in the assay with NCI-H522, > 100 µM (inactive); in the assay with OVCAR-5 it was > 100 µM (inactive). The GI50 in the assay with SF-295 and with 786-0 was > 100 µM (inactive) each time.
For `CC1=NN(C(=O)c2ccc(Cl)cc2)C(=O)/C1=C/c1ccc(Cl)cc1`, the GI50 in the assay on SF-268, with SW-620, in the assay on SN12C, in the assay on A549, in the assay on EKVX and with HOP-92 was > 100 µM (inactive) throughout. Moreover, the GI50 in the assay with NCI-H23, in the assay with HCT-116, with M14, in the assay with KM12, with NCI-H522 and with OVCAR-5 was > 100 µM (inactive) throughout. Also, the GI50 with SF-295 and in the assay on 786-0 was > 100 µM (inactive) each time.
In the case of `Cc1[nH]nc2c1C(=O)C=C(N(CCO)c1ccccc1)C2=O`, the GI50 with SW-620, with SN12C, in the assay on A549, in the assay on EKVX, in the assay on HOP-92 and in the assay with NCI-H23 was > 100 µM (inactive) throughout. In addition, the GI50 in the assay with HCT-116 is > 100 µM (inactive); with HCT-15, over 100 µM; in the assay on M14, > 100 µM (inactive); in the assay on KM12, > 100 µM (inactive); with NCI-H522, > 100 µM (inactive); with SF-295 it was > 100 µM (inactive). Moreover, the GI50 in the assay with 786-0 was > 100 µM (inactive).
With `CCN(CC)CCNC(=O)c1cccc2nc3ccccc3nc12`, the GI50 in the assay on SF-268 was 0.318 µM (active); in the assay on SW-620, 5.48 µM (inactive); in the assay with SN12C, 10.3 µM (inactive); with A549, 8.05 µM (inactive); in the assay on EKVX, 23.4 µM (inactive); with HOP-92 it was 38.4 µM (inactive). In addition, the GI50 with NCI-H23 is 13.7 µM (inactive); in the assay with HCT-116, 4.16 µM (inactive); with HCT-15, 6.53 µM; with M14, 18.5 µM (inactive); in the assay on KM12, 10.3 µM (inactive); in the assay on NCI-H522, 28.5 µM (inactive). Further, the GI50 was 15.8 µM (inactive) in the assay with OVCAR-5, 11 µM (inactive) in the assay with SF-295 and 27 µM (inactive) in the assay with 786-0.
On to `CSc1nc2nc(C(O)C(O)C(O)CO)cnc2c(=O)[nH]1` (stereo unspecified), for which the GI50 in the assay with SF-268, in the assay on SW-620, in the assay on SN12C, in the assay on A549, with EKVX and in the assay on NCI-H23 was > 100 µM (inactive) throughout. Moreover, the GI50 with HCT-116 is > 100 µM (inactive); with HCT-15, over 100 µM; in the assay on M14, > 100 µM (inactive); with KM12, > 100 µM (inactive); with NCI-H522, > 100 µM (inactive); with OVCAR-5 it was > 100 µM (inactive). Besides, the GI50 in the assay on SF-295 and in the assay on 786-0 was > 100 µM (inactive) throughout.
On to `CC1OC(=O)N(CCCC=C2SCCCS2)C1=O` (stereo unspecified), for which the GI50 with SF-268, in the assay on SW-620, with SN12C, in the assay on A549, in the assay with EKVX and in the assay with HOP-92 was > 100 µM (inactive) in each case. Also, the GI50 was > 100 µM (inactive) in the assay on NCI-H23; > 100 µM (inactive) in the assay on HCT-116; over 100 µM in the assay on HCT-15; > 100 µM (inactive) with M14; > 100 µM (inactive) in the assay with KM12; > 100 µM (inactive) with NCI-H522. The GI50 in the assay with OVCAR-5, in the assay on SF-295 and in the assay with 786-0 was > 100 µM (inactive) in each case.
Regarding `COc1ccc(/C=N\O[Si](C)(C)C(C)(C)C)cc1O[Si](C)(C)C(C)(C)C`, the GI50 was 21.5 µM (inactive) in the assay with SF-268; 18.7 µM (inactive) with SW-620; 19.2 µM (inactive) with SN12C; 18 µM (inactive) with A549; 21 µM (inactive) in the assay with EKVX; 22.6 µM (inactive) in the assay on HOP-92. Further, the GI50 is 19.4 µM (inactive) with NCI-H23; 15.7 µM (inactive) in the assay with HCT-116; 18.2 µM in the assay on HCT-15; 20 µM (inactive) in the assay with M14; 17.6 µM (inactive) in the assay on KM12; 22.4 µM (inactive) in the assay with OVCAR-5. The GI50 was 17.2 µM (inactive) with SF-295 and 16.7 µM (inactive) in the assay with 786-0.
`Sc1nnc(COc2ccc(Cl)cc2)[nH]1`: the GI50 in the assay on SF-268, in the assay with SW-620, with SN12C, in the assay with A549, in the assay on HOP-92 and in the assay with NCI-H23 was > 100 µM (inactive) throughout. Moreover, the GI50 is > 100 µM (inactive) in the assay with HCT-116; over 100 µM in the assay on HCT-15; > 100 µM (inactive) in the assay with M14; > 100 µM (inactive) in the assay on KM12; > 100 µM (inactive) with NCI-H522; > 100 µM (inactive) in the assay on OVCAR-5. The GI50 in the assay on SF-295 and with 786-0 was > 100 µM (inactive) in each case.
